What was measured:
MOLT-3 cells [1] = assay: Apoptosis by annexin V/7-AAD flow cytometry; type: cell-based, human; settings: 25 nM drug or prodrug, 1 μM 38C2 or PGA where stated
Procedure: (§1) Cell lines: Human T-lineage acute lymphoblastic leukemia (ALL) cell line MOLT-3, and human erythroleukemia cell line HEL were purchased from American Type Culture Collection (ATCC, Rockville, Md.) and maintained in RPMI 1640 medium (Hyclone, Logan, Utah) supplemented with 10% FCS, 1.5 gram/liter sodium bicarbonate, 10 mM HEPES, 1 mM sodium pyruvate, and antibiotics (Gibco, Grand Island, N.Y.).
Assessment of apoptosis: Cells were stained with Phycoerythrin (PE)-conjugated annexin V and 7-AAD using the annexin V kit (BD PharMingen, San Diego, Calif.) according to the manufacture's protocol. In brief, cells were collected at different time points, washed once with EDTA-free PBS, and then incubated for 15 minutes with a mixture containing annexin V-PE and 7-AAD in binding buffer (10 mM HEPES (pH 7.4), 140 mM NaCl, and 2.5 mM CaCl2). Thereafter, the supernatants were removed, and 400 μl of binding buffer was added to each sample. The fluorescence was analyzed by flow cytometry (FACScan, Becton Dickinson, San Jose, Calif.) for the presence of viable (AV^− and 7-AAD^−), early apoptotic (AV^+, 7-AAD^−), and late apoptotic/secondary necrotic (AV^+ and 7-AAD^+) cells.
MOLT-3cells were incubated in the presence of Compound 16 and PGA or Ab38C2, as described in the Methods section hereinabove, for various time periods. […]

HEL cells = assay: Cell growth inhibition, [3H]thymidine proliferation assay; type: cell-based; settings: Homo sapiens, read-out: IC50, HEL cells, 72 hours incubation, 38C2 or PGA at 1 μM where stated, read-out: IC50, Hell cells
Procedure: as §1
(§2) Cytotoxicity assays: Stock solutions of 2 mM doxorubicin (Dox) and dual-triggered prodrug (pro-Dox, Compound 16) in dimethylformamide were stored at 4° C. For cell-growth inhibition assays, 100 μM solutions of the drug or prodrug in PBS were freshly prepared from the 2 mM stock solutions.
(§3) Cells were harvested from culture dishes, washed once with HBSS, re-suspended in cell culture medium, and plated in 96-well tissue culture plate at a density of 5×10^3/well in 100 μl media. Drugs were further diluted in cell culture medium to yield final concentration of 50 pM-1 μM and added to the cells. […] The cells were frozen at −80° C. overnight and subsequently processed on a multichannel automated cell harvester (Cambridge Technology, Cambridge, Mass.) and counted in a liquid scintillation beta counter (Beckman Coulter). […] The inhibition in experiment E was calculated according to the following formula: (background−E)/background×100%. […]

MOLT-3 cells [2] = assay: as above; type: cell-based; settings: Homo sapiens, 72 hours incubation, 38C2 or PGA at 1 μM where stated
Procedure: as §1, §2, §3

- IC50 (MOLT-3 cells [2]): 3 nM
SMILES: COc1cccc2c1C(=O)c1c(O)c3c(c(O)c1C2=O)C[C@@](O)(C(=O)CO)C[C@@H]3O[C@H]1C[C@H](N)[C@H](O)[C@H](C)O1 [Dox, doxorubicin]
- incubation time after which the majority of cells were in early or late apoptotic state (MOLT-3 cells [1]): 24 h
- induction of apoptosis (MOLT-3 cells [1]; up to 72 hours): undergo apoptosis
- IC50 (HEL cells): 20 nM
